Measured values taken from US20230303552A1, “ARYLSULFONYL DERIVATIVES AND THEIR USE AS MUSCARINIC ACETYLCHOLINE RECEPTOR M5 INHIBITORS” (Vanderbilt University, priority 2020, published 2023).

Molecular target: T1, human M5 receptors (hM5) (Homo sapiens, UniProt P08912)
T1 construct: expressed in transfected cells
T1 sequence (P08912 1-532): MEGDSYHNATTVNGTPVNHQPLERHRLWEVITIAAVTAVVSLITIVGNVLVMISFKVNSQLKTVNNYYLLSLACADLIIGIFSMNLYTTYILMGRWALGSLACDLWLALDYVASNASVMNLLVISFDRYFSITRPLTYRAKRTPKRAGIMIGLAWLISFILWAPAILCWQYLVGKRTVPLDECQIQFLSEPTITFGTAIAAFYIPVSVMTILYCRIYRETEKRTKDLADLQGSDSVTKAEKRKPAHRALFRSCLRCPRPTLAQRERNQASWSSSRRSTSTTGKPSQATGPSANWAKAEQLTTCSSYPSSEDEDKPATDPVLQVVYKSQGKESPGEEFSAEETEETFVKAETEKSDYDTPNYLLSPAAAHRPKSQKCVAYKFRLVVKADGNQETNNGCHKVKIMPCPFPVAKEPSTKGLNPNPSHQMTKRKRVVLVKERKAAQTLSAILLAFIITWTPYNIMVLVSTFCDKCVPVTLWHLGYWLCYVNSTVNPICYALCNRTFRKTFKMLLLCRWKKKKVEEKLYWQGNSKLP
Assay: Cell-based functional calcium mobilization assay of mAChR M5 activity (inhibition of EC80 acetylcholine response) in CHO cells
Settings: CHO cells stably expressing hM5; for IC50: calcium flux (Fluo-4), EC80 acetylcholine addition; for EC80 MIN: minimum of EC80 acetylcholine response, normalized to maximum acetylcholine response
Protocol: All functional cell-based assays were performed essentially as previously described (Marlo et al., Mol.Pharm. 2009, 75(3), 577-588; Brady et al., J. Pharm. & Exp. Ther. 2008, 327, 941-953). Initial, single point (10 µM) competitive and non-competitive inhibitor characterization was performed in stable Chinese Hamster Ovary (CHO) cell lines constitutively expressing human M5 receptors. These were plated at 15,000 cells per 20 µL per well in Greiner 384-well black-walled, TC-treated, clear-bottomed plates (Fisher) in Ham’s F12 medium supplemented with 10% FBS and 20 mM HEPES. Cells were incubated overnight at 37° C. under 5% CO2. The following day, medium was exchanged with assay buffer (Hank’s Balanced Salt Solution supplemented with 20 mM HEPES and 2.5 mM Probenecid, pH 7.4) leaving 20 µL of assay buffer in each well. This was followed by the addition of 20 µL of 2.3 µM of Fluo-4 AM (Invitrogen) in assay buffer (final concentration 1.15 µM). The cells were then incubated 50 minutes at 37° C. under 5% CO2. The assay buffer plus dye was then exchanged with fresh assay buffer leaving a volume of 20 µL in each well. Test compounds were diluted into assay buffer to a 2X (20 µM) concentration in 0.2% dimethylsulfoxide (DMSO) in columns 3 - 22 with matching DMSO concentration in columns 1, 2, 23, and […]; compounds were added to the assay for a final concentration of 10 µM and a final DMSO concentration of 0.1%. Acetylcholine (Sigma-Aldrich) was prepared to provide 5X concentrations of EC20, EC80, and ECmax in the triple-addition assay, providing a signal window to view agonism, potentiation, and inhibition of the acetylcholine response as well as a means to normalize to the maximum acetylcholine response.
Either an FDSS (Hamamatsu) or Panoptic (WaveFront Biosciences) kinetic imaging plate reader was used for assay execution and measurement of calcium flux. After establishing baseline fluorescence, test compounds (20 µL) were added to the cells using the reader’s integrated pipettor and allowed to equilibrate for 140 seconds before addition of the EC20 concentration of acetylcholine (10 µL) along with vehicle in selected DMSO-only wells in the outer two columns. The EC80 concentration of acetylcholine (10 µL) was added 125 seconds after the EC20 addition along with ECmax concentration in the wells receiving vehicle in the second addition. The raw fluorescence data from each well was normalized to the corresponding initial fluorescence reading (static ratio). The maximum fluorescence value following each addition was determined and the minimum value within that same timeframe was subtracted for each well then normalized to the average of the ECmax maximum-minimum response, providing a %AChmax value for each addition for each well. The single point values represent mean values determined within the EC80 addition timeframe obtained from at least three independent determinations performed in triplicate or greater (error bars represent +/- SEM) unless otherwise specified.
Further characterization of competitive and non-competitive inhibitor compounds (compound potency and mAChR subtype-selectivity) was performed on the FDSS with calcium mobilization assays performed as previously described (Marlo et al., 2009; Brady et al., 2008) and in a format similar to that described above using the same reagents. CHO cells stably expressing hM1, hM2/Gqi5, hM3, hM4/Gqi5, hM5, rM1, rM2/Gqi5, rM3, rM4/Gqi5, or rMs were plated in the manner described above. A ten-point concentration range of test compound was serial diluted in assay buffer to 2X final concentration and acetylcholine was diluted in assay buffer to 5X of the EC20 and EC80 concentrations, determined empirically and 5X maximal (2 mM final concentration) stock concentrations. FDSS protocols were carried out as described above; the static ratio was calculated and the minimum response subtracted from the maximum response within the timeframe of each addition. […]

Structure (SMILES)	IC50	EC80 MIN
CC1Cc2cc(S(=O)(=O)N3CC[C@@H](C(=O)Nc4ccc5scnc5c4)C3)ccc2O1 (mixture of isomers) [Compound 88, (3R)-N-(benzo[d]thiazol-5-yl)-1-((2-methyl-2,3-dihydrobenzofuran-5-yl)sulfonyll)pyrrolidine-3-carboxamide]	4.96 µM	3%
CC1COc2ccc(S(=O)(=O)N3CC[C@@H](C(=O)Nc4ccc5scnc5c4)C3)cc21 (mixture of isomers) [Compound 132, (3R)-N-(benzo[d]thiazol-5-yl)-1-((3-methyl-2,3-dihydrobenzofuran-5-yl)sulfonyl)pyrrolidine-3-carboxainide]	0.042 µM	2%
CC1COc2ccc(S(=O)(=O)N3C[C@H](C(=O)Nc4ccc5scnc5c4)[C@@H](C)C3)cc21 (mixture of isomers) [Compound 133, (3R,4R)-N-(benzo[d]thiazol-5-yl)-4-methyl-1-((3-methyl-2,3-dihydrobenzofuran-5-yl)sulfonyl)pyrrolidine-3-carboxamide]	0.156 µM	3%
Cc1cc2c(cc1S(=O)(=O)N1CC[C@@H](C(=O)Nc3ccc4scnc4c3)C1)C(C)CO2 (mixture of isomers) [Compound 146, (3R)-N-(benzo[d]thiazol-5-yl)-1-((3,6-dimethyl-2,3-dihydrobenzofuran-5-yl)sulfonyl)pyrrolidinc-3-carboxamide]	0.074 µM	2%
O=C(Nc1ccc2scnc2c1)C1CCN(S(=O)(=O)c2ccc3c(c2)CCO3)C1 (racemic) [Compound 15, (rac)-N-(benzo[d]thiazol-5-yl)-1-((2,3-dihydrobcnzofuran-5-yl)sulfonyl)pyrrolidine-3-carboxamide]	0.047 µM	2%
O=C(Nc1ccc2scnc2c1)C12CC1CN(S(=O)(=O)c1ccc3c(c1)CCO3)C2 (racemic) [Compound 23, (rac)-N-(benzo[d]thiazol-5-yl)-3-((2,3-dihydrobenzofuran-5-yl)sulfonyl)-3-azabicyclo[3.1.0]hexane-1-carboxamide]	0.248 µM	2%
O=C(Nc1ccc2scnc2c1)C1CCN(S(=O)(=O)c2cccnc2)C1 (racemic) [Compound 38, (rac)-N-(benzo[d]thiazol-5-yl)-1-(pyridin-3-ylsulfonyl)pyrrolidine-3-carboxamide]	> 10 µM	29%
O=C(Nc1ccc2scnc2c1)C12CC1CN(S(=O)(=O)c1cccnc1)C2 (racemic) [Compound 40, (rac)-N-(benzo[d]thiazol-5-yl)-3-(pyridin-3-ylsulfonyl)-3-azabicyclo[3.1.0]hexane-1-carboxamide]	> 10 µM	53%
O=C(Nc1ccc2scnc2c1)C12CC1CN(S(=O)(=O)c1cc3c(cc1F)OCC3)C2 (racemic) [Compound 43, (rac)-N-(benzo[d]thiazol-5-yl)-3-((6-fluoro-2,3-dihydrobenzofuran-5-yl)sulfonyl)-3-azabicyclo[3.1.0]hexane-1-carboxamide]	0.202 µM	3%
O=C(Nc1ccc2scnc2c1)[C@H]1CCN(S(=O)(=O)c2ccc3c(c2)CCO3)C[C@H]1F (racemic) [Compound 69, cis-(rac)-N-(benzo[d]thiazol-5-yl)-1-((2,3-dihydrobenzofuran-5-yl)sulfonyl)-3-fluoropiperidine-4-carboxamide]	2.28 µM	2%
O=C(Nc1ccc2scnc2c1)[C@H]1CCN(S(=O)(=O)c2ccc3ncsc3c2)C[C@H]1F (racemic) [Compound 70, cis-(rac)-N-(benzo[d]|thiazol-5-yl-1)-1-(benzo[d]thiazol-6-ylsulfonyl)-3-fluoropiperidine-4-carboxamide]	> 10 µM	63%
O=C(Nc1ccc2scnc2c1)[C@H]1CCN(S(=O)(=O)c2ccc(Cl)nc2)C[C@H]1F (racemic) [Compound 71, cis-(rac)-N-(benzo[d]thiazol-5-yl)-1-((6-chloropyridin-3-yl)sulfonyl)-3-fluoropiperidine-4-carboxamide]	> 10 µM	20%
O=C(Nc1ccc2scnc2c1)[C@H]1CCN(S(=O)(=O)c2cccnc2)C[C@H]1F (racemic) [Compound 72, cis-(rac)-N-(benzo[d]thiazol-5-yl)-3-fluoro-1-(pyridin-3-ylsulfonyl)piperidine-4-carboxamide]	> 10 µM	13%
Cc1nn(C)cc1S(=O)(=O)N1CC[C@H](C(=O)Nc2ccc3scnc3c2)[C@H](F)C1 (racemic) [Compound 73, cis-(rac)-N-(benzo[d]thiazol-5-yl)-1-((1,3-dimethyl-1H-pyrazol-4-yl)sulfonyl)-3-fluoropiperidine-4-carboxamide]	> 10 µM	45%
O=C(Nc1ccc2scnc2c1)[C@H]1CCN(S(=O)(=O)c2cccc3nsnc23)C[C@H]1F (racemic) [Compound 75, cis-(rac)-1-(benzo[c][1,2,5]thiadiazol-4-ylsulfonyl)-N-(benzo[d]thiazol-5-yl)-3-fluoropiperidine-4-carboxamide]	4.26 µM	18%
O=C(Nc1ccc2scnc2c1)[C@H]1CCN(S(=O)(=O)c2ccc3ncsc3c2)C[C@@H]1F (racemic) [Compound 77, trans-(rac)-N-(benzo[d]thiazol-5-yl)-1-(benzo[d]thiazol-6-ylsulfony1)-3-fluoropiperidine-4-carboxamide]	0.209 µM	2%
O=C(Nc1ccc2scnc2c1)[C@H]1CCN(S(=O)(=O)c2ccc(Cl)nc2)C[C@@H]1F (racemic) [Compound 79, trans-(rac)-N-(benzo[d]thiazol-5-yl)-1-((6-chloropyridin-3-yl)sulfonyl)-3-fluoropiperidine-4-carboxamide]	0.139 µM	2%
Cc1nn(C)cc1S(=O)(=O)N1CC[C@H](C(=O)Nc2ccc3scnc3c2)[C@@H](F)C1 (racemic) [Compound 80, trans-(rac)-N-(benzo[d]thiazol-5-yl)-1-((1,3-dimethyl-1H-pyrazol-4-yl)sulfonyl1)-3-fluoropiperidine-4-carboxamide]	0.312 µM	3%
O=C(Nc1ccc2scnc2c1)[C@H]1CCN(S(=O)(=O)c2cccc3nsnc23)C[C@@H]1F (racemic) [Compound 81, trans-(rac)-1-(benzo[c][1,2,5]thiadiazol-4-ylsulfonyl)-N-(benzo[d]thiazol-5-yl)-3-fluoropiperidine-4-carboxamide]	0.5 µM	5%
O=C(Nc1ccc2scnc2c1)[C@H]1CCN(S(=O)(=O)c2cccnc2)C[C@@H]1F (racemic) [Compound 82, trans-(rac)-N-(benzo[d]thiazol-5-yl)-3-fluoro-1-(pyridin-3-ylsulfonyl)piperidine-4-carboxamide]	0.095 µM	2%
